≈ marks a conversion by molar mass, not a printed value. Residues, ends and D or L forms follow the SMILES beside them.
Tests used:
E coli ATCC 25922 = assay type: cell-based, Escherichia coli
Procedure: Gram negative bacterial strains were cultivated in Luria-Bertani (LB) broth (Difco) and gram positive bacteria strains were grown in a rich medium, brain heart infusion (BHI) broth (Difco, Sparks, MD) at 37° C. Whenever required, growth media were supplemented with appropriate antibiotic to the medium or plates. Escherichia coli DH5α was used for cloning and plasmid amplification. […] Bacterial CFU counting was done on blood agar plates (BD Biosciences). Species identification and antibiograms for all clinical isolates were performed using MALDI-TOF and VITEK® 2 automated system (bioMérieux).
The MICs of active peptides were determined via the Broth microdilution assay according to the EUCAST guideline, which were performed in 96-well polystyrene flat-bottom microtiter plates (BD Biosciences). Briefly, a single colony was inoculated into 5 mL LB medium and grown to the end-exponential growth phase in a shaking incubator at 37° C. Cultures were subsequently diluted to an OD600 of 0.002 ([…]) in fresh LB medium. 100 μL of LB medium with different concentration of peptides ranging from 100 μg/mL to 1 μg/mL were serially diluted to the sterile 96-well plate (at least 3 wells in each plate). […] A multipurpose UV/VIS plate reader at OD590 nm, 1 s shaking measured the absorbance of the growth bacteria using a Perkin Elmer spectrophotometer (1420 Multilabel Counter Victor 3).

[1] = ELISA on immobilised colpeptin1 with serum of treated animals; assay type: in vivo; settings: mice treated for 18 days with 30 mg/kg
Procedure: FIG. 2: Cross seeding and in vivo activity. (A) Fluorescence microscopy image of HeLa cells mixed with E. coli O157 and treated with FITC-labelled Colpeptin1 (green channel). Blue channel is DAPI, red is CellMask Deep Red plasma membrane dye. (D) Inhibitor effect of Colpeptin1 on bacterial growth in the presence of human blood serum (average and s.d. of 3 replicates). (E) ELISA on immobilised colpeptin1 using blood serum of animals treated for 18 days with 30 mg/kg colpeptin1 (3 replicates from 3 mice). […] See materials and methods for details.
Given these positive results, we then established the tolerance of the Swiss mice to the peptide by performing a dose escalation experiment. […] The parameters observed included body weight, food and water consumption, home cage activity and locomotion. […] Based on these observations, we tested the antibacterial efficacy of the colpeptin1 in a mouse bladder infection model. In this model, an inoculum of 50 μL of a 10^8 CFU/mL suspension of E. coli O157:H7 was delivered via the urethra to the bladder of healthy Swiss mice. 1 h post-infection, we administered a single injection of colpeptin1 at 10 mg/kg, either via the urethra (n=15) or intraperitoneally (n=15). 24 h after treatment, the animals were sacrificed and the bacterial titer in kidney, colon, bladder and ureter was determined by plating the macerated tissue (FIG. 2F-l).

## CC(C)C[C@H](NC(=O)CNC(=O)[C@H](CCCNC(=N)N)NC(=O)[C@@H]1CCCN1C(=O)[C@H](CCCNC(=N)N)NC(=O)[C@H](CCCNC(=N)N)NC(=O)[C@@H](NC(=O)[C@H](CC(C)C)NC(=O)[C@H](C)NC(=O)[C@H](CC(C)C)NC(=O)CNC(=O)[C@H](CC(C)C)NC(=O)CNC(=O)[C@@H](N)CCCNC(=N)N)C(C)C)C(=O)NCC(=O)N[C@@H](CC(C)C)C(=O)N[C@@H](C)C(=O)N[C@@H](CC(C)C)C(=O)N[C@H](C(=O)N[C@@H](CCCNC(=N)N)C(=O)N[C@@H](CCCNC(=N)N)C(=O)O)C(C)C [Peptide P2] (H-RGLGLALVRRPRGLGLALVRR-OH)
E coli ATCC 25922
  MIC: 12 µg/mL (≈ 5.22 µM)
[1]
  antibody response towards the peptide (ELISA on serum): no specific antibody response

— patent publication US11872262B2, “Means and methods for treating bacterial infections” (VIB VZW, priority 2017, dated 2024)
